Reference: patent publication US12252457B2, “Compositions and methods for reducing tactile dysfunction, anxiety, and social impairment” (President and Fellows of Harvard College, priority 2018, dated 2025)

System: Mecp2^R306C and Shank3B^+/− mice
Experiment: Chronic isoguvacine treatment from P0-P42 of Mecp2 and Shank3 germline mutant mice
Type: in vivo, mouse
Procedure: FIGS. 21A-21O show chronic administration of isoguvacine improves tactile over-reactivity, region-selective cortical abnormalities, and some ASD-related behaviors in Mecp2 and Shank3 mutant mice. FIG. 21A: Representative images of P21 control and Mecp2^C/y mutant mice treated daily from P0-21 with either saline or isoguvacine (2 mg/kg). FIG. 21B: Average phenotypic score of P21 Shank3B^+/− or Mecp2^C/y mutant mice and control littermates treated daily with either saline or isoguvacine (2 mg/kg). One-way ANOVA with post-hoc Tukey's test, *, p<0.05. FIG. 21C: Average bodyweight of P21 Shank3B^+/− or Mecp2^C/y mutant mice and control littermates treated daily with either saline or isoguvacine (2 mg/kg). One-way ANOVA with post-hoc Tukey's test, *, p<0.05. […] One-way ANOVA with post-hoc Tukey's test, *, p<0.05. FIG. 21E: Discrimination index for textured NORT. One-way ANOVA with post-hoc Tukey's test, *, p<0.05. FIG. 21F: Representative activity traces in the OF test. FIG. 21G: Percent time spent in the center of the OF chamber. One-way ANOVA with post-hoc Tukey's test, *, p<0.05. FIG. 21H: Percent time spent in the open arms of the EPM. One-way ANOVA with post-hoc Tukey's test, *, p<0.05. FIGS. 21I-21J: Preference index for the percentage of time spent investigating the novel mouse in the “Sociability” (FIG. 21I) or “Social Novelty Recognition Preference” (FIG. 21J) portion of the 3-chamber social interaction test. One-way ANOVA with post-hoc Tukey's test, *, p<0.05. FIG. 21K: Representative IHC images of transverse S1 brain sections, showing PV immunoreactivity in Shank3B^+/− or Mecp2^C/y mutant mice and control littermates treated daily from P1-42 with either saline or isoguvacine (2 mg/kg). FIGS. 21L-21M: Quantification of the number of PV-positive (PV^+) neurons in S1 (FIG. 21L) and V1 (FIG. 21M). One-way ANOVA with post-hoc Tukey's test, *, p<0.05. FIG. 21N: Representative traces showing ePSCS (−70 my hold) and iPSCs (0 mV hold) from S1 slices from Shank3B^+/− or Mecp2^C/y mutant mice and control littermates treated daily from P1-42 with either saline or isoguvacine (2 mg/kg). FIG. 21O: Quantification of excitatory/inhibitory (E/I) ratio in S1 or V1 slices from control and mutant mice. One-way ANOVA with post-hoc Tukey's test, *, p<0.05.
Therefore, it was tested whether chronic treatment of Mecp2 and Shank3 germline mutant mice with isoguvacine beginning shortly after birth (i.p. administration, 2 mg/kg per daily, from P0-P42) improves any of the ASD-related phenotypes commonly observed in adulthood. […] Taken together, treatment with a peripherally restricted GABAA receptor agonist during early postnatal development may provide an effective therapeutic strategy for improving tactile over-reactivity and a subset of other key features of ASD, including anxiety, without causing sedation and other undesirable effects of activating brain GABAA receptors during development.

With `O=C(O)C1=CCNCC1` [Isoguvacine, isoguvacine] the “tactile over-reactivity, anxiety-like behaviors, social impairments, PV+ neuron abnormalities in S1 and BLA, E/I ratios in S1” value (8-week-old mice, 2 mg/kg i.p. daily P0-P42) was “significantly improved multiple ASD-associated behavioral phenotypes”, the motor impairments (Mecp2 mutants, chronic 2 mg/kg) was “not improved” and the “overall body appearance, or phenotypic score” value (P21, 2 mg/kg i.p. daily, vs saline-treated) was “substantial improvement”. For the same molecule, the “bodyweight of mutant mice” value (P21, Shank3B and Mecp2 mutant mice, 2 mg/kg daily) was “increased bodyweight and were not different in weight from control mice”, the overgrooming phenotype (Shank3 mutants, chronic 2 mg/kg) was “nor was the overgrooming phenotype rescued” and the “textured discrimination deficits, acoustic PPI performance, memory impairments, PV+ neuron abnormalities and E/I ratios in V1” value (Shank3 or Mecp2 mutants, 2 mg/kg i.p. daily P0-P42) was “did not improve”.
